Measurements from the NIST ThermoML archive (doi:10.1016/j.jct.2007.03.012).
± gives the expanded uncertainty stated by the source.

Test: xn = mol fraction of the nth substance listed
Conditions: Liquid, Bellows volumetry

CC(C)C [2-methylpropane] + CCC
mass density [kg/m3]
Conditions	280 K	300 K	320 K	340 K	360 K
1000 kPa, x2 = 0.2765	562.64 ± 0.51	–	508.11 ± 0.46	–	–
1000 kPa, x2 = 0.5052	551.34 ± 0.5	524.22 ± 0.47	–	–	–
1000 kPa, x2 = 0.7468	537.6 ± 0.48	–	–	–	–
2000 kPa, x2 = 0.2765	564.6 ± 0.51	–	511.38 ± 0.46	–	–
2000 kPa, x2 = 0.5052	553.2 ± 0.5	526.6 ± 0.47	497.06 ± 0.45	461.7 ± 0.42	–
2000 kPa, x2 = 0.7468	539.46 ± 0.49	–	479.56 ± 0.43	–	–
3000 kPa, x2 = 0.2765	566.3 ± 0.51	–	514.42 ± 0.46	–	445.63 ± 0.4
3000 kPa, x2 = 0.5052	555.01 ± 0.5	529.08 ± 0.48	500.46 ± 0.45	467.03 ± 0.42	423.27 ± 0.38
3000 kPa, x2 = 0.7468	541.38 ± 0.49	–	483.56 ± 0.44	–	–
5000 kPa, x2 = 0.2765	569.29 ± 0.51	–	520.11 ± 0.47	–	458.57 ± 0.41
5000 kPa, x2 = 0.5052	558.39 ± 0.5	533.59 ± 0.48	506.63 ± 0.46	476.37 ± 0.43	439.84 ± 0.4
5000 kPa, x2 = 0.7468	545.05 ± 0.49	–	490.55 ± 0.44	–	415.25 ± 0.37
10000 kPa, x2 = 0.2765	576.64 ± 0.52	–	531.88 ± 0.48	–	480.82 ± 0.43
10000 kPa, x2 = 0.5052	565.97 ± 0.51	543.3 ± 0.49	519.45 ± 0.47	493.82 ± 0.44	465.78 ± 0.42
10000 kPa, x2 = 0.7468	553.18 ± 0.5	–	504.71 ± 0.45	–	447.04 ± 0.4
20000 kPa, x2 = 0.2765	589.39 ± 0.53	–	550.35 ± 0.5	–	509.06 ± 0.46
20000 kPa, x2 = 0.5052	579.24 ± 0.52	559.15 ± 0.5	538.88 ± 0.49	518.13 ± 0.47	496.7 ± 0.45
20000 kPa, x2 = 0.7468	566.92 ± 0.51	–	525.65 ± 0.47	–	–
30000 kPa, x2 = 0.2765	600.09 ± 0.54	–	564.57 ± 0.51	–	–
30000 kPa, x2 = 0.5052	590.28 ± 0.53	572.02 ± 0.52	553.95 ± 0.5	535.68 ± 0.48	–
30000 kPa, x2 = 0.7468	578.25 ± 0.52	–	541.33 ± 0.49	–	–
40000 kPa, x2 = 0.2765	609.41 ± 0.55	–	576.53 ± 0.52	–	–
40000 kPa, x2 = 0.5052	599.56 ± 0.54	582.88 ± 0.53	566.43 ± 0.51	549.83 ± 0.5	–
40000 kPa, x2 = 0.7468	588.02 ± 0.53	–	553.96 ± 0.5	–	–
50000 kPa, x2 = 0.2765	617.7 ± 0.56	–	586.9 ± 0.53	–	–
50000 kPa, x2 = 0.5052	608.07 ± 0.55	592.36 ± 0.53	576.96 ± 0.52	561.5 ± 0.51	–
50000 kPa, x2 = 0.7468	596.76 ± 0.54	–	564.8 ± 0.51	–	–
60000 kPa, x2 = 0.2765	625.03 ± 0.56	–	595.84 ± 0.54	–	–
60000 kPa, x2 = 0.5052	615.65 ± 0.56	600.74 ± 0.54	586.25 ± 0.53	571.92 ± 0.52	–
60000 kPa, x2 = 0.7468	604.59 ± 0.55	–	574.56 ± 0.52	–	–
70000 kPa, x2 = 0.2765	632.03 ± 0.57	–	604.2 ± 0.55	–	–
70000 kPa, x2 = 0.5052	622.58 ± 0.56	608.66 ± 0.55	594.64 ± 0.54	581.17 ± 0.53	–
70000 kPa, x2 = 0.7468	611.65 ± 0.55	–	583.04 ± 0.53	–	–
80000 kPa, x2 = 0.2765	638.32 ± 0.58	–	611.65 ± 0.55	–	–
80000 kPa, x2 = 0.5052	629.12 ± 0.57	615.58 ± 0.56	602.37 ± 0.55	589.45 ± 0.53	–
80000 kPa, x2 = 0.7468	618.29 ± 0.56	–	590.88 ± 0.54	–	–
90000 kPa, x2 = 0.2765	644.2 ± 0.58	–	618.46 ± 0.56	–	–
90000 kPa, x2 = 0.5052	635.05 ± 0.57	622.2 ± 0.56	609.27 ± 0.55	597.11 ± 0.54	–
90000 kPa, x2 = 0.7468	624.34 ± 0.56	–	598.03 ± 0.54	–	–
100000 kPa, x2 = 0.2765	649.78 ± 0.59	–	625.01 ± 0.57	–	–
100000 kPa, x2 = 0.5052	640.63 ± 0.58	628.29 ± 0.57	615.79 ± 0.56	603.84 ± 0.55	–
100000 kPa, x2 = 0.7468	629.98 ± 0.57	–	604.67 ± 0.55	–	–
120000 kPa, x2 = 0.2765	659.95 ± 0.6	–	636.48 ± 0.58	–	–
120000 kPa, x2 = 0.5052	650.88 ± 0.59	639.23 ± 0.58	627.71 ± 0.57	616.54 ± 0.56	–
120000 kPa, x2 = 0.7468	640.58 ± 0.58	–	616.69 ± 0.56	–	–
140000 kPa, x2 = 0.2765	669.13 ± 0.61	–	647 ± 0.59	–	–
140000 kPa, x2 = 0.5052	660.2 ± 0.6	649.29 ± 0.59	638.12 ± 0.58	627.45 ± 0.57	–
140000 kPa, x2 = 0.7468	649.88 ± 0.59	–	627.42 ± 0.57	–	–
160000 kPa, x2 = 0.2765	677.73 ± 0.62	–	656.27 ± 0.61	–	–
160000 kPa, x2 = 0.5052	668.68 ± 0.62	658.13 ± 0.61	647.73 ± 0.6	637.64 ± 0.59	–
160000 kPa, x2 = 0.7468	658.46 ± 0.61	–	636.99 ± 0.59	–	–
180000 kPa, x2 = 0.2765	685.38 ± 0.63	–	665.05 ± 0.62	–	–
180000 kPa, x2 = 0.5052	676.44 ± 0.62	666.5 ± 0.62	656.41 ± 0.61	646.63 ± 0.6	–
180000 kPa, x2 = 0.7468	666.22 ± 0.62	–	645.7 ± 0.6	–	–
200000 kPa, x2 = 0.2765	692.5 ± 0.64	–	673 ± 0.63	–	–
200000 kPa, x2 = 0.5052	683.68 ± 0.63	674.16 ± 0.63	664.56 ± 0.62	655.11 ± 0.61	–
200000 kPa, x2 = 0.7468	673.88 ± 0.63	–	653.87 ± 0.61	–	–
